Data: ChEMBL document CHEMBL4428041, “Identification and SAR Evaluation of Hemozoin-Inhibiting Benzamides Active against Plasmodium falciparum” (J Med Chem, 2016)
pIC50: −log10 of the molar value. Converted amounts (≈) assume the structure as drawn. The source made the active and inactive calls. The calls are words filed in the database; no cut-off is given here.

Columns and labels:
Plasmodium falciparum [1] = test: Antimalarial activity against CQ-sensitive Plasmodium falciparum NF54 infected in human type O+ erythrocytes assessed as growth inhibition incubated for 48 hrs by LDH assay; format: functional, organism-based; settings: NF54, 48 h
Hemozoin [2] = test: Inhibition of beta-hematin in water/NP40/DMSO solution incubated for 5 to 6hrs by detergent-mediated pyridine-ferrichrome method
Plasmodium falciparum [3] = test: Antimalarial activity against CQ-sensitive Plasmodium falciparum D10 infected in human type O+ erythrocytes assessed as growth inhibition incubated for 48 hrs by LDH assay; format: functional, organism-based; settings: D10, 48 h
Ferriprotoporphyrin IX [4] = test: Binding affinity to Fe(3)PP9 solution assessed as ferriprotoporphyrin 9 complex formation by measuring compound concentration causing pink precipitate formation at <=5500 uM
[5] = Kinetic solubility of compound FaSSIF at pH 6.5 after 2 hrs by shake flask assay; format: physicochemical; settings: read-out: Kinetic_solubility
[6] = Kinetic solubility of compound at pH 2 after 2 hrs by shake flask assay; format: physicochemical; settings: buffer, read-out: Kinetic_solubility
[7] = Clearance in human liver microsomes assessed per mg of protein at 0.1 uM by LC-MS/MS analysis; format: ADME, Microsome; settings: read-out: CLH
Plasmodium falciparum [8] = test: Antimalarial activity against CQ-resistant Plasmodium falciparum K1 infected in human type O+ erythrocytes assessed as growth inhibition incubated for 48 hrs by LDH assay; format: functional, organism-based; settings: K1, 48 h
[9] = Selectivity index, ratio of IC50 for cytotoxicity against CHO cells to IC50 for CQ-sensitive Plasmodium falciparum NF54 infected in human type O+ erythrocytes; format: toxicity, cell-based; settings: Chinese hamster, read-out: Ratio IC50
[10] = Half life in human liver microsomes at 0.1 uM in presence of NADPH by LC-MS/MS analysis; format: ADME, Microsome
Hemozoin [11] = test: Inhibition of hemozoin formation in Plasmodium falciparum trophozoites infected in human erythrocytes assessed as induction of irregularly scattered and shapeless hemozoin clumps inside swollen digestive vacuole at 0.22 ug/ml incubated for 32 hrs by transmission electron microscopic analysis relative to control; format: cell-based; settings: Erythrocyte
[12] = Extraction ratio in human liver microsomes assessed per mg of protein at 0.1 uM by LC-MS/MS analysis; format: ADME, Microsome; settings: read-out: ERH
[13] = Extraction ratio in rat liver microsomes assessed per mg of protein at 0.1 uM by LC-MS/MS analysis; format: ADME, Microsome; settings: read-out: ERH
[14] = Clearance in mouse liver microsomes assessed per mg of protein at 0.1 uM by LC-MS/MS analysis; format: ADME, Microsome; settings: read-out: CLH
[15] = Clearance in rat liver microsomes assessed per mg of protein at 0.1 uM by LC-MS/MS analysis; format: ADME, Microsome; settings: read-out: CLH
Hemozoin [16] = test: Inhibition of hemozoin formation in CQ-sensitive Plasmodium falciparum D10 infected in human type O+ erythrocytes assessed as decrease in hemozoin formation incubated for 32 hrs by cell fractionation assay; format: cell-based; settings: Erythrocyte
CHO = test: Cytotoxicity against CHO cells by MTT assay; format: cell-based; settings: Cricetulus griseus
[17] = Half life in rat liver microsomes at 0.1 uM in presence of NADPH by LC-MS/MS analysis; format: ADME, Microsome
[18] = Half life in mouse liver microsomes at 0.1 uM in presence of NADPH by LC-MS/MS analysis; format: ADME, Microsome
[19] = Extraction ratio in mouse liver microsomes assessed per mg of protein at 0.1 uM by LC-MS/MS analysis; format: ADME, Microsome; settings: read-out: ERH
Hemozoin [20] = test: Inhibition of hemozoin formation in CQ-sensitive Plasmodium falciparum D10 infected in human type O+ erythrocytes assessed as increase in free heme incubated for 32 hrs by cell fractionation assay; format: cell-based; settings: Erythrocyte
[21] = Kinetic solubility of compound in at pH 6.5 after 2 hrs by shake flask assay; format: physicochemical; settings: buffer, read-out: Kinetic_solubility
Hemozoin [22] = test: Inhibition of hemozoin formation in CQ-sensitive Plasmodium falciparum D10 infected in human type O+ erythrocytes assessed as hemozoin level at beta-hematin IC50 incubated for 32 hrs by cell fractionation assay (reference value: 89%); format: cell-based; parameters: scale not given: the % may be the effect or the level left; settings: Erythrocyte
Hemozoin [23] = test: Inhibition of hemozoin formation in CQ-sensitive Plasmodium falciparum D10 infected in human type O+ erythrocytes assessed as free heme level at beta-hematin IC50 incubated for 32 hrs by cell fractionation assay (reference value: 7%); format: cell-based; parameters: scale not given: the % may be the effect or the level left; settings: Erythrocyte
Ferriprotoporphyrin IX [24] = test system: Ferriprotoporphyrin IX
Description: Binding affinity to Fe(3)PP9 in hematin solution at pH 7.5 by titration-based UV-vis spectrophotometrical analysis

Hemozoin [25] = test: Inhibition of hemozoin formation in CQ-sensitive Plasmodium falciparum D10 infected in human type O+ erythrocytes assessed as decrease in hemozoin formation at 0.5 to 4 times beta-hematin IC50 incubated for 32 hrs by cell fractionation assay; format: cell-based; settings: Erythrocyte
Hemozoin [26] = test: Inhibition of hemozoin formation in CQ-sensitive Plasmodium falciparum D10 infected in human type O+ erythrocytes assessed as increase in free heme at 0.5 to 4 times beta-hematin IC50 incubated for 32 hrs by cell fractionation assay; format: cell-based; settings: Erythrocyte
Ferriprotoporphyrin IX [27] = test: Binding affinity to Fe(3)PP9 solution assessed as ferriprotoporphyrin 9 complex formation by measuring pink precipitate formation at <=5500 uM
Hemozoin [28] = test: Inhibition of beta-hematin incubated for 6 hrs by NP40 detergent-mediated assay
Plasmodium falciparum [29] = test: Antimalarial activity against Plasmodium falciparum D6 infected in red blood cells assessed as growth inhibition by SYBR green1 fluorescence-based assay; format: functional, organism-based

O=C(Nc1ccccc1)c1ccccc1[N+](=O)[O-]
pIC50 (Plasmodium falciparum [1]): < 4.38
pIC50 (Hemozoin [2]): < 3.00

N#Cc1cc(C(=O)Nc2ccccc2)cc(C(=O)Nc2ccccc2)c1
pIC50 (Plasmodium falciparum [3]): 5.28
pIC50 (Hemozoin [2]): 5.36

O=C(Nc1ccccc1)c1cc(C(=O)Nc2ccccc2)cc(C(=O)Nc2ccccc2)c1
pIC50 (Plasmodium falciparum [1]): 4.09
pIC50 (Plasmodium falciparum [3]): < 4.38
pIC50 (Hemozoin [2]): 4.68

O=C(Nc1ccncc1)c1cccc(C(F)(F)F)c1
Activity (Ferriprotoporphyrin IX [4]): 1300 to 2300 µM

CC(C)(C)c1cc(C(=O)Nc2cccnc2)cc(C(=O)Nc2cccnc2)c1
solubility kinetic at 2 h [5]: 154 µM (≈ 57.5 µg/mL)
solubility kinetic at 2 h [6]: 197 µM (≈ 73.8 µg/mL)
microsomal CLint at 0.1 µM [7]: 14.1 µL/min/mg
pIC50 (Plasmodium falciparum [8]): 5.77
selectivity ratio [9]: 308
half-life at 0.1 µM [10]: 142 min
pIC50 (Plasmodium falciparum [1]): 6.22
Activity (Hemozoin [11]): Active
hepatic extraction ratio at 0.1 µM [12]: 0.4
pIC50 (Plasmodium falciparum [3]): 6.15
hepatic extraction ratio at 0.1 µM [13]: 0.4
microsomal CLint at 0.1 µM [14]: 130 µL/min/mg
microsomal CLint at 0.1 µM [15]: 33.5 µL/min/mg
inhibition (Hemozoin [16]): Dose-dependent effect
pIC50 (CHO): 3.73
half-life at 0.1 µM [17]: 93.2 min
half-life at 0.1 µM [18]: 52.4 min
pIC50 (Hemozoin [2]): 5.17
hepatic extraction ratio at 0.1 µM [19]: 0.6
inhibition (Hemozoin [20]): Dose-dependent effect
solubility kinetic at 2 h [21]: 92.7 µM (≈ 34.7 µg/mL)

O=C(Nc1ccncc1)c1cccc(C(=O)Nc2ccncc2)c1
pIC50 (Plasmodium falciparum [1]): 5.05
pIC50 (Hemozoin [2]): 3.29

CN(C)Cc1ccc(NC(=O)c2cc(C(=O)Nc3ccc(CN(C)C)cc3)cc([N+](=O)[O-])c2)cc1
Activity (Hemozoin [22]): 53%
pIC50 (Plasmodium falciparum [1]): 5.82
Activity (Hemozoin [23]): 41%
pIC50 (Hemozoin [2]): 5.10

Nc1ccnc2cc(Cl)ccc12
log K (Ferriprotoporphyrin IX [24]): 4.43

CCN(CC)CCCC(C)Nc1ccnc2cc(Cl)ccc12 (configuration not stated) [CHLOROQUINE]
pIC50 (Hemozoin [2]): 4.50

O=C(Nc1cccnc1)c1cc(C(=O)Nc2cccnc2)cc([N+](=O)[O-])c1
pIC50 (Plasmodium falciparum [1]): 5.88
pIC50 (Hemozoin [2]): 5.33

O=C(Nc1ccncc1)c1cccc(Cl)c1
Activity (Ferriprotoporphyrin IX [4]): 1300 to 2300 µM

CC(C)(C)c1cc(C(=O)Nc2ccccc2)cc(C(=O)Nc2ccccc2)c1
pIC50 (Plasmodium falciparum [1]): 5.09
inhibition (Hemozoin [25]): inactive
pIC50 (Hemozoin [2]): < 3.00
inhibition (Hemozoin [26]): inactive

N#Cc1cc(C(=O)Nc2ccncc2)cc(C(=O)Nc2ccncc2)c1
pIC50 (Plasmodium falciparum [1]): 5.72
pIC50 (Plasmodium falciparum [3]): 5.70
pIC50 (Hemozoin [2]): 5.20

O=C(Nc1ccccc1)c1cccc(C(=O)Nc2ccccc2)c1
pIC50 (Plasmodium falciparum [1]): < 3.50
pIC50 (Hemozoin [2]): < 3.00

O=C(Nc1ccncc1)c1ccc([N+](=O)[O-])cc1[N+](=O)[O-]
Activity (Ferriprotoporphyrin IX [27]): inactive
pIC50 (Hemozoin [2]): < 2.26
Activity (Ferriprotoporphyrin IX [4]): inactive

CC(C)(C)c1cc(C(=O)Nc2ccncc2)cc(C(=O)Nc2ccncc2)c1
pIC50 (Plasmodium falciparum [1]): 5.80
pIC50 (Hemozoin [2]): 4.88

O=C(Nc1ccccn1)c1cc([N+](=O)[O-])cc([N+](=O)[O-])c1
pIC50 (Plasmodium falciparum [1]): 4.66
pIC50 (Plasmodium falciparum [3]): 4.62
pIC50 (Hemozoin [2]): 3.87

O=C(Nc1cccnc1)c1cc([N+](=O)[O-])cc([N+](=O)[O-])c1
pIC50 (Plasmodium falciparum [1]): 5.30
pIC50 (Plasmodium falciparum [3]): 5.64
inhibition (Hemozoin [16]): Dose-dependent effect
pIC50 (Hemozoin [2]): 4.89
inhibition (Hemozoin [20]): Dose-dependent effect

O=C(Nc1ccncc1)c1cc(C(=O)Nc2ccncc2)cc([N+](=O)[O-])c1
solubility kinetic at 2 h [5]: 13 µM (≈ 4.72 µg/mL)
solubility kinetic at 2 h [6]: 200 µM (≈ 72.6 µg/mL)
microsomal CLint at 0.1 µM [7]: < 11.6 µL/min/mg
half-life at 0.1 µM [10]: > 150 min
pIC50 (Plasmodium falciparum [1]): 6.15
pIC50 (Plasmodium falciparum [3]): 6.05
pIC50 (Hemozoin [28]): 5.23
microsomal CLint at 0.1 µM [14]: < 11.6 µL/min/mg
microsomal CLint at 0.1 µM [15]: < 11.6 µL/min/mg
pIC50 (CHO): < 3.56
half-life at 0.1 µM [17]: > 150 min
half-life at 0.1 µM [18]: > 150 min
pIC50 (Hemozoin [2]): 5.37
pIC50 (Plasmodium falciparum [29]): 6.72
solubility kinetic at 2 h [21]: < 5 µM
